We go through two compounds from paper PMC6695731, “Application of a Substrate-Mediated Selection with c-Src Tyrosine Kinase to a DNA-Encoded Chemical Library” (Molecules, 2019).

Where “and” joins values, the source holds several entries; their conditions need not be identical. Equal values may be shown once. Entries after “also recorded” stand apart in the source; their conditions may differ.

The target in experiment [1] is T1, c-Src (Homo sapiens, UniProt P12931). The experiment can be described thus: on-DNA binding affinity to c-Src by fluorescence polarization in the presence of ATP. The following applies: ligand linked to 20-mer oligo hybridized to FAM oligo; ATP 100 µM; read-out: binding constant (Kd). The protocol:
These studies used the HPLC-purified ligand linked to 20-mer oligos, which were prepared for the prior qPCR validations under crude conditions. This construct was hybridized to a fluorescein-containing complementary oligo, and binding constants were determined by changes observed in fluorescence polarization, as previously described.
(a) on-DNA binding affinity to c-Src measured by fluorescence polarization in the presence of ATP (100 µM). […] Peak identity was verified by LC/MS analysis (Figure S9).
(In general: In fluorescence polarisation assays a small probe gives low polarisation when free and higher when bound to something large.)

Experiment [2] concerns the target T1, c-Src. The experiment can be described thus: radiolabel (32P-ATP) inhibition assay of LYNtide phosphorylation by c-Src. Type of experiment: biochemical. The following applies: 32P-ATP 50 µM, biotinylated-LYNtide 50 µM. Here is the method:
The original six off-DNA hits were tested for inhibition of c-Src activity. For these tests, we used ^32P-ATP as a substrate and detected phosphorylation levels of a biotinylated-LYNtide substrate after adsorption to streptavidin coated membranes. This assay should not be affected by activation of ATP hydrolysis or phosphotransfer to the small molecules. […] There was no apparent correlation of these values to the Km or kcat values in the prior assays as substrates.
Each hit molecule was preincubated with 1.2 nM c-Src at 30 °C for 30 min. The kinase reaction was initiated with the addition of 50 μM LYNtide and 50 μM ATP with 0.15 μCi gamma ^32P ATP at 30 °C for 10 min. The kinase reaction samples (2 µL) were spotted on P81 filter paper consisting of 1.5 cm squares. After air dry, the P81 papers were washed 4 times with 0.5% phosphoric acid for 5 min each. The P81 papers were washed one time with acetone for 5 min. The papers were then allowed to air dry for about 20 min. The dried P81 papers were analyzed by liquid scintillation counter.
Figure 6 Inhibition of hit molecules in a radiolabel assay with ^32P-ATP (50 µM) and biotinylated-LYNtide (50 µM) as substrates.

Experiment [3] concerns the target T1, c-Src. The experiment can be described thus: HPLC and LC/MS analysis of phosphorylation of the compound by c-Src. In kind it is biochemical. Here is the method: (§1) To confirm this, compounds were tested with an NADH-based, coupled enzyme assay that also detects ADP generation. […] This additionally supported that the ADP-Glo activity observed was due to activation of ATP hydrolysis and not phosphotransfer to these compounds.
(a) on-DNA binding affinity to c-Src measured by fluorescence polarization in the presence of ATP (100 µM). […] Peak identity was verified by LC/MS analysis (Figure S9). […]
Kina se R e a c t ion w it h 1µM Src
Figure S7. HPLC Analysis of LYNtide Phosphorylation. The kinase reaction was performed by incubating 200 µM LYNtide with Src in 1x kinase buffer (as outlined in section 4.6 NADH coupled assay, […]
with 1mM ATP) for 30 min. […] Peak […]
identities were verified by LC/MS. The peak at 19 minutes is an impurity in the LYNtide alkyne preparation, which was also phosphorylated. […]
[M+H ]+ cal cd. […] O OH […]
Figure S9. LC/MS analysis of SrcDEL10 Phosphorylation. […]
µM ATP and 0.3 µM c-Src at 30 C for 16 hours. […]
and 10 µM c-Src at 30 C for 16 hours. […]

The target in the next experiment is Src (Homo sapiens, UniProt P12931). The experiment can be described thus: HPLC-assessed inhibition of LYNtide phosphorylation. In kind it is biochemical. Here is the method:
Kina se R e a c t ion w it h 1 0 nM Sr c
KR with LynT ide N-Alkyne (50uM)
Kina se R e a c t ion w it h 1 0 nM Sr c + Sr c D E L 1 0
300 ~ 25% phosphorylation
KR with LynT ide N-Alkyne (50uM) + Cmpd 10 (100uM)
Figure S11. […] The kinase reaction
30 min, if applicable) in 1x kinase buffer (as outlined in 4.6 NADH coupled assay, with 1mM ATP) for 30

Experiment [4] deals with STAT3 phosphorylation in NME cells. The experiment can be described thus: cell signaling immunoblot, EGF-stimulated STAT3 phosphorylation (Src-dependent). In kind it is cell-based, murine. Conditions: 100 µM prior to EGF (50 ng/mL, 30 min). From the text: Epidermal growth factor (EGF) stimulation of NME cells leads to STAT3 phosphorylation via a Src-dependent process. […] The broad specificity Src family inhibitor, PP2, was used as a positive control. Importantly, phosphorylation of ERK1/2, which occurs via a Src independent pathway, was not reduced. Similarly, autophosphorylation of EGFR at Y1068 was not affected.
NME cells were constructed via stable overexpression of EGFR in normal murine mammary gland (NMuMG) cells as previously described. These cells were cultured in DMEM containing 10% FBS, 10 μg/mL insulin, penicillin, and streptomycin. For cell signaling assays, cells were plated for 24 h prior to removal of the FBS for an additional 24 h. During this serum starvation, PP2 (Sigma, 529576) or SrcDEL10-ester were added as indicated, and cells were subsequently stimulated with EGF (50 ng/mL) (Goldbio, 1150-04) for 30 min. […] Differential binding of these antibodies was detected using their appropriate secondary antibodies.
NME cells were serum deprived for 24 h in the presence of vehicle control (DMSO), Src family inhibitor PP2 (10 µM), or SrcDEL10-ester (100 µM) for the indicated amounts of time. […] Equal protein aliquots were analyzed by immunoblot with the indicated antibodies. […]
Background: In western blotting, separated proteins are transferred to a membrane and probed.

The target in experiment [5] is T1, c-Src. The experiment can be described thus: ADP-Glo assay of compounds as c-Src substrates (ADP production). In kind it is biochemical. Here is the method: Hit molecules were initially characterized as substrates for c-Src using the luciferase-based ADP-Glo assay (Promega). All six molecules appeared to be efficient substrates for Src kinase.
Kinase reaction was performed as follows 1x kinase buffer (25 mM Tris-HCl (pH 7.5), 2 mM dithiothreitol (DTT), 0.1 mM Na3VO4, 10 mM MgCl2), 1 mM ATP, different concentrations (1 μM to 100 μM) of substrates (either off DNA or on DNA hit molecules), and 12 nM rSrc by incubation for 2 h at 30 °C. After that, distinct 55mers were annealed to each kinase reaction, as previously described. The annealed reactions were incubated with anti Pho-Tyr loaded protein G magnetic bead at RT for 30 min. After washing by three times 20 μL 1xPBST with 1 mg/mL BSA, 1 mg/mL tRNAs), the captured samples were eluted by 20 μL of 1 mM phenylphosphate. The resulting supernatant was then used as a template in qPCR.
After the kinase reaction was performed as previous section, the reaction mixture (5 μL) was incubated with 5 µL of ADP-Glo™ reagent at RT for 40 min and then add 10 µL of kinase detection reagent at RT for 1 h. The luminescence was measure by plate reader.
In general terms: ADP-Glo first removes unused ATP, then detects ADP through luciferase.

Experiment [6] has as its target T1, c-Src. The experiment can be described thus: substrate-mediated selection of DNA conjugates (c-Src treatment, anti-phosphotyrosine pulldown), enrichment by qPCR. Type of experiment: biochemical. Conditions: purified DNA conjugates, with kinase treatment. Here is the method:
To mimic library selection conditions, a DNA-LYNtide construct was mixed with a control construct at a ratio of 1 to 500. This mixture was treated at 50 nM total DNA concentration with Src kinase and the selection was applied. We observed robust enrichment (2600-fold) and recovery (9%) of the LYNtide construct by qPCR (Figure S3).
We then questioned if SrcDEL10 was indeed selected from the library based on the ability to serve as a Src substrate and accept a phosphate.
For optimization of substrate-based selection, two unique 180-mer constructs were prepared by PCR, as previously described. Each contained two unique 20-mer sequences for specific amplification and detection in qPCR. One was prepared with an unmodified forward primer as a control. The other was prepared using a LYNtide 20-mer oligo conjugate as a primer.
Kinase reaction was performed as follows 1x kinase buffer (25 mM Tris-HCl (pH 7.5), 2 mM dithiothreitol (DTT), 0.1 mM Na3VO4, 10 mM MgCl2), 1 mM ATP, different concentrations (1 μM to 100 μM) of substrates (either off DNA or on DNA hit molecules), and 12 nM rSrc by incubation for 2 h at 30 °C. After that, distinct 55mers were annealed to each kinase reaction, as previously described. […]
Figure S3. […] In a model enrichment assay, enrichment for tyrosine kinase substrates was detected by qPCR of model 180-mer constructs. […]

Experiment [7] relates to c-Src. The following applies: LYNtide kinetic parameters for Src; cited from earlier work.
The target of experiment [8] is T1, c-Src. The experiment can be described thus: NADH-based coupled enzyme assay detecting ADP generation. Type of experiment: biochemical. The following applies: 1 mM ATP, 100 µM compound, 12 nM Src, 30 °C, 3 h. The protocol: as §1
Kinase reaction was performed as follows 1x kinase buffer (25 mM Tris-HCl (pH 7.5), 2 mM dithiothreitol (DTT), 0.1 mM Na3VO4, 10 mM MgCl2), 1 mM ATP, 100 μM peptides and 12 nM Src at 30 °C for 3 h. The kinase reaction mixture was incubated with 30 unit/mL lactic dehydrogenase (LDH), 20 unit/mL pyruvate kinase (PK), 2 mM phosphoenolpyruvate (PEP), and 1 mM NADH. The absorbance of NADH was monitored at 340 nm.
Figure S8. NADH Coupled Assay of Hit Molecules with c-Src. Samples were composed of 1 mM ATP,
100 µM putative substrate molecules, and 12 nM c-Src kinase at 30 C for 3 hours. Full method description
is provided in Methods and Materials 4.6 NADH assay.

The mark [9] stands for this setting: Table S3, ADP-Glo assay of SrcDEL10 derivatives, enzyme Src.

For the compound `NC(=O)CN(CCc1ccc(O)cc1)C(=O)[C@H](CC(=O)O)NC(=O)c1ccc(CN(CC2CC2)C(=O)CCO)cc1` [SrcDEL10], at c-Src [1], the Kd – broadly, the concentration at which binding is half-saturated – came to 7.5 µM. For the same compound, on c-Src [2], half-maximal inhibition (IC50) required 48 µM. The “SrcDEL10-phos. fraction by LC/MS” value at c-Src [3] (SrcDEL10 100 µM, 100 µM ATP, 10 µM c-Src, 30 C, 16 hours (Figure S9b)) was 54%. The phosphorylated compound formed on c-Src [3] (enzyme 1 µM, SrcDEL10 200 µM, ATP 1 mM, HPLC, LC/MS) is ~ 1%. In addition, on Src, the inhibition (commonly the relative decrease from the control value, in per cent) at 100 µM was around 50%. Also, the “LYNtide phosphorylation in presence of compound” value at Src (100 µM SrcDEL10, 50 µM LYNtide, 10 nM Src, 50% without compound) was ~ 25%. Further, the “STAT3 phosphorylation levels after EGF stimulation” value in [4] is “No reduction”.
Consider “DEDIYGVLP [LYNtide, optimal peptide substrate for Lyn tyrosine kinase, a Src family kinase, reference compound]”, for which the kcat – broadly, the maximal rate divided by the concentration of active sites – in the experiment with c-Src [5] (ADP-Glo assay) was 6.5 s⁻¹; in the experiment with c-Src [5] (setting [9]), 6.47 s⁻¹; with c-Src [7], 2.0 s⁻¹. Besides, the Km (usually the concentration of substrate that gives half-maximal velocity) with c-Src [5] (ADP-Glo assay, compound as substrate of c-Src) is 5 µM and 5.2 µM; with c-Src [5] (setting [9]), 5.23 µM; in the experiment with c-Src [7] it was 18 µM. The Vmax (usually the rate approached at saturating substrate) with c-Src [5] (setting [9]) worked out at 1.17 µM/min. For the same compound, the “enrichment in qPCR selection assay” value with c-Src [6] was 10,000 fold. Moreover, the “extent of phosphorylation” value with c-Src [3] (1 µM c-Src, 200 µM LYNtide, 1 mM ATP, 30 min) is listed as “full phosphorylation; also recorded: fully phosphorylated”. In addition, the “ADP generation relative to compound” value in the experiment with c-Src [8] is listed as “approximately one equivalent”.
